We go through two compounds from paper PMC2962730 (Journal of neurochemistry, 2010).

Residue numbers refer to the chain shown, from its start.

One test has as its target T1, hVAChT A330V (Homo sapiens, UniProt Q16572, A330V).
T1 sequence (Q16572 1-532 A330V): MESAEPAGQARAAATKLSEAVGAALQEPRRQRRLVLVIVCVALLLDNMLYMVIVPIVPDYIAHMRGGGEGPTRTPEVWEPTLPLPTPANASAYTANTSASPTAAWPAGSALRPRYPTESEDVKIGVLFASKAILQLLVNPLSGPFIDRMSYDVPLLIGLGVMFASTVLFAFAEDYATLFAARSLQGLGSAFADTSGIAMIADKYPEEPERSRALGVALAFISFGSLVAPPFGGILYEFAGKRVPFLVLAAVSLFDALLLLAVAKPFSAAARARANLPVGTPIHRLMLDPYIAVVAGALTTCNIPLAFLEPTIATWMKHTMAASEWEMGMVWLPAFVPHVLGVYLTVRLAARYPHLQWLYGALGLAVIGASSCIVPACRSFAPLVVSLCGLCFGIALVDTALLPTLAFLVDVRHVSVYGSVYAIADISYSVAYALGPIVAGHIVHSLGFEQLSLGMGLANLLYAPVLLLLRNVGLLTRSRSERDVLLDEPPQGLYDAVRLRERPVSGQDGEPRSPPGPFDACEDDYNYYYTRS
The test can be described thus: [3H]ACh transport. It counts as biochemical.

Test [1] addresses T2, hVAChT K317A (Homo sapiens, UniProt Q16572, K317A).
T2 sequence (Q16572 1-532 K317A): T1 sequence (Q16572 1-532 A330V) with K317A, V330A
In words: [3H]ACh transport. In kind it is biochemical.

In the next test the target is T3, hVAChT W331A (Homo sapiens, UniProt Q16572, W331A).
T3 sequence (Q16572 1-532 W331A): T1 sequence (Q16572 1-532 A330V) with V330A, W331A
The test can be described thus: ACh equilibrium binding by competition against [3H]vesamicol.

The target in a further test is T4, hVAChT C388A (Homo sapiens, UniProt Q16572, C388A).
T4 sequence (Q16572 1-532 C388A): T1 sequence (Q16572 1-532 A330V) with V330A, C388A
The test can be described thus: [3H]ACh transport. It counts as biochemical.

A further test has as its target T5, hVAChT F392A (Homo sapiens, UniProt Q16572, F392A).
T5 sequence (Q16572 1-532 F392A): T1 sequence (Q16572 1-532 A330V) with V330A, F392A
In words: [3H]vesamicol saturation binding. The note with it: pH 7.4.

The target of test [2] is T2, hVAChT K317A. The test can be described thus: [3H]vesamicol saturation binding. Conditions: pH 7.4.
Where [3] appears, read: read-out: KM, Michaelis-Menten constant for ACh transport, pH 7.4.

In general, Km refers to the concentration of substrate that gives half-maximal velocity. Regarding `CC(=O)OCC[N+](C)(C)C` [ACh, acetylcholine], the entries for the “Vmax/Bmax, ACh transport normalized to Bmax” value on hVAChT A330V (pH 7.4), at hVAChT K317A [1] (pH 7.4) and on hVAChT C388A (pH 7.4) were 6.3 ± 1.3 min⁻¹, 17.8 ± 3.9 min⁻¹ and 12 ± 1 min⁻¹, respectively. For the same compound, the Michaelis constant (Km) was 2200 ± 900 µM at hVAChT A330V (setting [3]), 3200 ± 1200 µM on hVAChT K317A [1] (setting [3]) and 2300 ± 500 µM at hVAChT C388A (setting [3]). Further, the “ACh bound more weakly than by wild-type” value on hVAChT W331A (W331A hVAChT vs wild-type) was determined as 11 fold. Further, at hVAChT W331A (W331A hVAChT, pH 7.4, monophasic fit, FHA fixed to 1), the “FHA, fraction of the ACh sites that have high affinity” value is 1.0.

On to `O[C@@H]1CCCC[C@H]1N1CCC(c2ccccc2)CC1` (racemic) [vesamicol, ( )-trans-2-(4-phenylpiperidino)cyclohexanol], for which the “Bmax, maximal specific [3H]vesamicol binding (VAChT expression level)” value on hVAChT F392A came to 93 ± 5 pmol/mg; on hVAChT K317A [2], 21 ± 1 pmol/mg.
